Test results: patent US20070093469A1, “Substituted azetidine compounds as cyclooxygenase-1-cyclooxygenase-2 inhibitors, and their preparation and use as medicaments” (LABORATORIOS DEL DR. ESTEVE S.A, priority 2004, published 2007)

Tests used:
Cox-2 = molecular target: T1, Cox-2 (Homo sapiens, UniProt P35354); assay: Cox-2 activity in human whole blood (LPS, PGE2); format: cell-based; settings: read-out: hWB inhibition COX-2 IC50
T1 construct: 0.5 ml of fresh human blood; from tissue; host or cells: fresh human whole blood stimulated with E. coli 0111:B4 LPS
T1 sequence (P35354 18-604): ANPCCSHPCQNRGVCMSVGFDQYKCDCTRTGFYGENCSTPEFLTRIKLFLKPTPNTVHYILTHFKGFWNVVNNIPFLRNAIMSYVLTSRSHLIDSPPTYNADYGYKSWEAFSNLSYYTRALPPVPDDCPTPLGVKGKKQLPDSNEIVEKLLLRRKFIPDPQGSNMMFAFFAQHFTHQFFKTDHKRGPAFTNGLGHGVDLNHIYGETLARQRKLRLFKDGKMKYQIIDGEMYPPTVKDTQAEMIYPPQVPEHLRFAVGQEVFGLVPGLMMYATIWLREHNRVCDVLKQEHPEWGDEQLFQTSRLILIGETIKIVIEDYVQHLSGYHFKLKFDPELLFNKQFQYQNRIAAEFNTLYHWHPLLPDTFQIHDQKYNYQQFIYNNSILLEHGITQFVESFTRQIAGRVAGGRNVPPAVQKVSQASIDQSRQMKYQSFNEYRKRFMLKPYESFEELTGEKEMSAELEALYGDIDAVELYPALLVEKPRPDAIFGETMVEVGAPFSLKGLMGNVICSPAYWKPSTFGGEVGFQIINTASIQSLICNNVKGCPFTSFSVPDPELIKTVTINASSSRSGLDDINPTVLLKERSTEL
Protocol: II. Determination of Cox-1- and Cox-2-Activity in Human Whole Blood
The Cox-1- and Cox-2-activity in human whole blood is determined according to a modification of the method described in the publication of C. Brideau et al., “A human whole blood assay for clinical evaluation of biochemical efficacy of cyclooxygenase inhibitors”, Inflamm Res 1996; 45: 68-74. The respective part of the description is hereby incorporated by reference and forms part of the present disclosure.
For Cox-2 activity determination, tubes are prepared with 2 μl of the compound to be tested or DMSO, 12 μg/ml of aspirine, 9 μl of 1% (weight/volume) sodium heparine and 0.5 ml of fresh human blood. Samples are pre-incubated at 37° C. during 15 minutes and E. coli 0111:B4 LPS (from Sigma Chemical, St. Louis, Mo. U.S.A., catalogue number L-3012) are added for incubation during 24 h at 37° C. The samples are centrifuged for 100 μl of plasma collection. 400 μl of Ethyl acetate and 1% (volume/volume) methanol are added to each sample and the tubes are stirred and centrifuged for 10 minutes at 5000 g at 4° C. 300μl of supernatant are aspirated and evaporated under nitrogen atmosphere. Prostaglandin E2 concentration is quantified using an assay kit from Cayman Chemical, Ann-Arbor, Mich., U.S.A. (Catalogue number: 514010 ) after reconstitution into 300 μl assay buffer supplied in the assay kit.

Cox-1 enzyme = molecular target: T2, Cox-1 enzyme (Ovis aries, UniProt P05979); assay: Cox-1/Cox-2 enzyme assay (Cox-1); format: biochemical; settings: for IC50: enzyme assay
T2 construct: purchased Cayman Chemical 60100
T2 sequence (P05979 25-600): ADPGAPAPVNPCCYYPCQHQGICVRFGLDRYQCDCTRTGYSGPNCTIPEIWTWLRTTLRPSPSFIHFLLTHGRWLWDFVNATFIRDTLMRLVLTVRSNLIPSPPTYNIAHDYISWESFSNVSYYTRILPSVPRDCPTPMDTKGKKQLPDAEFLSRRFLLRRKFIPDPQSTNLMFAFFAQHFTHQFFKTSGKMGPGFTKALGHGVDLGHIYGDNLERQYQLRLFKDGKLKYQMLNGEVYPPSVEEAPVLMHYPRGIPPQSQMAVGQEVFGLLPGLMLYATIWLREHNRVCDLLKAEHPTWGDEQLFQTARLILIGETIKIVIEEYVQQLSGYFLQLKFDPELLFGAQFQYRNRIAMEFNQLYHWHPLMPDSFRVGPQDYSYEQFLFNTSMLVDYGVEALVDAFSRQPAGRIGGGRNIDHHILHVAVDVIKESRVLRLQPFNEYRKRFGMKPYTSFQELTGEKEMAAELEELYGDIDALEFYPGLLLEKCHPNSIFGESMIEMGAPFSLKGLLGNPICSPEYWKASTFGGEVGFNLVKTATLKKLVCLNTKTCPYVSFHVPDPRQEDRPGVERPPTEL
Protocol: I. Cox-1/Cox-2 Enzyme Assay:
The Cox-1/Cox-2 enzyme assay for the inventive azetidine compounds is carried out according to the following description:
Immediately after the addition of the substrate, the slope corresponding to the optical density increase at 480 nm is recorded for 1 minute. The reaction is monitored with a Hewlett-Packard 8452A spectrophotometer.

[1] = tested on: PGE2 production in rat gastric mucosa; assay: PGE2 production in rat gastric mucosa; format: in vivo; settings: rats, oral route, read-out: PGE2 gastric mucose ED50
Protocol: VI: PGE2 Production in Rat Inflammatory Exudate and Gastric Mucosa
The PGE2 production in rat inflammatory exudate and gastric mucosa is carried out as described in the publication of O Tofanetti et al., “Effect of nimesulide on cyclo-oxygenase activity in rat gastric mucosa and inflammatory exudate”, Med Sci Res 17, 745-746 (1989). The respective part of the description is hereby incorporated by reference and forms part of the present disclosure.
For this text 6 male wistar rats (Interfauna-St Feliú de Codines, Barcelona) of approximately 200 g (each approximately 6 weeks of age) are used. The compounds to be tested are administered via oral route in gum Arabic at 5% (weight/volume) at a rate of 10 ml/kg.
One hour after administration of the compounds and under halothane anaesthesia, each rat is implanted subcutaneously in the interescapular area a 40×15×5 mm polyester sponge, soaked in a 0.5% suspension of carrageenan. Rats are sacrificed 6 hours after the implant, the sponges are removed and squeezed. The exudates are collected and centrifuged at 6000×G for 15 minutes.
The rats's stomachs are removed and the gastric mucosa is detached from the underlying layers and by means of a 10 mm diameter die, mucosa samples from an area between the gastric corpus and pyloric antrum are taken. The mucosal PGE2 is extracted. PGE2 concentrations from the inflammatory exudates and the gastric mucosa are determined by means of inmmunoassay reagents of Cayman Chemical kit, Ann Arbor, Mich., U.S.A. (Catalogue number: 514010) according to the manufacturer's instructions.

CC1C(O)CN1C(=O)c1cc(C(C)(C)C)c(O)c(C(C)(C)C)c1 (stereo not drawn) [Example 4, (3,5-di-tert-butyl-4-hydroxy-phenyl)-(3-hydroxy-2-methyl-azetidin-1-yl)-methanone] showed an IC50 (Cox-2) of 500 nM, a melting point of 162 to 166 °C and an IC50 (Cox-1 enzyme) of 246000 nM. For the same molecule, the ED50 [1] was 1 mg/kg.

For CC(C)(C)c1cc(C(=O)N2CC(O)C2)cc2c1OCC2(C)C [Example 14, (7-tert-butyl-3,3-dimethyl-2,3-dihydro-benzofuran-5-yl)-(3-hydroxy-azetidin-1-yl)-methanone], the IC50 (Cox-2) was 100 nM, the melting point was 144 to 148 °C and the IC50 (Cox-1 enzyme) was 48300 nM. It also gave an ED50 [1] of 2.7 mg/kg.

Molecule CC(C)(C)c1cc(C(=O)N2CC(O)C2)cc(C(C)(C)C)c1 [Example 2, (3,5-di-tert-butyl-phenyly)-(3-hydroxy-azetidin-1-yl)-methanone] has an IC50 (Cox-2) of 800 nM, a melting point of 146 to 149 °C and an inhibition at 50 µM (Cox-1 enzyme; read-out: % inhibition 5 × 10^−5 M COX-1) of 9%. For the same molecule, the ED50 [1] was 3.7 mg/kg.
